For orientation: IC50 means the concentration needed to halve the response being measured.

Bounds are passed on as bounds.

The target in experiment [1] is T1, hA2a (Homo sapiens (Human), UniProt P29274). As to the kind of experiment: Radioligand binding to hA2a membrane ([3H]-CGS21680). The conditions noted are these: [3H]-CGS21680, 90 min at 25° C., read-out: Binding Affinity (IC50 nM) hA2a. As to the method:
(§1) Binding affinity and specificities of the compounds against different subtype of human adenosine receptors (hA1, hA2A, hA2B and hA3) were characterized with cell membrane chromatography binding analysis.
The compounds at different concentrations were incubate with hA2a membrane (from PerkinElmer) and [^3H]-CGS21680 for 90 min at 25° C., meanwhile 100 μL 0.5% PEI solution was added into […]-96 GF/B filter plate for 60 min at 4° C., then […]-96 GF/B filter plate was washed twice with 50 ml wash buffer, the membrane mix was transferred into […]-96 GF/B filter plate, and the filter plate was washed 4 times before incubated at 55° C. for 10 min. At last, […] ULTIMA GOLD was added into each well, and CPM was read by TopCount.
(§2) The empty boxes in the tables below indicate data not available.

Experiment [2] deals with T2, hA1 (Homo sapiens (Human), UniProt P30542). The experiment in a line: Radioligand binding to hA1 membrane ([3H]-DPCPX). The settings on record: 50 min at 25° C., read-out: Binding Affinity (IC50 nM) hA1. As to the method:
as §1
The compounds at different concentrations were incubate with hA1 membrane (from PerkinElmer) and [^3H]-8-Cyclopentyl-1,3-dipropylxanthine (DPCPX) for 50 min at 25° C., meanwhile 100 μL 0.5% PEI solution was added into […]-96 GF/B filter plate for 60 min at 4° C., then […]-96 GF/B filter plate was washed twice with 50 ml wash buffer, the membrane mix was transferred into […]-96 GF/B filter plate, and the filter plate was washed 4 times before incubated at 55° C. for 10 min. At last, […] ULTIMA GOLD was added into each well, and CPM was read by TopCount.
as §2

The target of experiment [3] is T3, hA2b (Homo sapiens (Human), UniProt P29275). As to the kind of experiment: Radioligand binding to hA2b membrane ([3H]-DPCPX). The conditions noted are these: 60 min at 27° C., read-out: Binding Affinity (IC50 nM) hA2b. The method, then:
as §1
The compounds at different concentrations were incubate with hA2b membrane (from PerkinElmer) and [^3H]-DPCPX for 60 min at 27° C., and the binding reactions were stopped by rapid filtration through 0.5% BSA coated […]-96 GF/C plates using cell harvester. The filter plates were then washed three times with ice cold wash buffer, and dried at 37° C. for 120 min. At last, 50 µL of scintillation cocktail was added into each well, and CPM was read by TopCount.
as §2

Experiment [4] concerns the target T4, hA3 (Homo sapiens (Human), UniProt P0DMS8). The experiment in a line: Radioligand binding to hA3 membrane (AB-MECA radioligand). The conditions noted are these: 60 min at 27° C., read-out: Binding Affinity (IC50 nM) hA3. As to the method: as §1
The compounds at different concentrations were incubate with hA3 membrane (from PerkinElmer) and […] for 60 min at 27° C., the binding reactions were stopped by rapid filtration through 0.50% BSA coated […]-96 GF/C plates using cell harvester. The filter plates were then washed three times with ice cold wash buffer, and dried at 37° C. for 120 min. At last, 50 µL of scintillation cocktail was added into each well, and CPM was read by TopCount.
as §2

Experiment [5] deals with T1, hA2a. As to the kind of experiment: cAMP inhibition assay in hA2a/CHO cells. The class given is cell-based. The conditions noted are these: adenosine stimulation, read-out: cAMP & FLIPR IC50 (nM) hA2a. The method, boiled down:
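CHO cells expressing human A2a, human A2b or mouse A2a, 5×10^3 cells/well, pre-incubated with compound 30 min at 37 °C, then stimulated with […] adenosine 30 min at 37 °C. cAMP read after 60 min room-temperature incubation with detection reagent.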

The target of experiment [6] is T3, hA2b. As to the kind of experiment: cAMP inhibition assay in hA2b/CHO cells. The settings on record: adenosine stimulation, read-out: cAMP & FLIPR IC50 (nM) hA2b. It counts as cell-based. The method, then: (§3) hA2a/CHO, hA2b/CHO and mA2a/CHO (Genscript) were plated at 5×10^3 cells/well into 384-well polystyrene plates at the day of experiment. Compounds were pre-incubated with cells for 30 min at 37° C., 5% CO2. Then […] adenosine was added to the cells and incubated for 30 min at 37° C., 5% CO2. Detection reagent (CISBIO) was added and the plates were incubated for 60 min at room temperature. The signal was captured by Envision.

The next experiment has as its target mA2a (Mus musculus (Mouse), UniProt Q60613). As to the kind of experiment: cAMP inhibition assay in mA2a/CHO cells. It counts as cell-based. The settings on record: adenosine stimulation, read-out: cAMP & FLIPR IC50 (nM) mA2a. The method, then:
as §3

Experiment [7] deals with T2, hA1. The experiment in a line: FLIPR inhibition assay in hADORA1/CHO (hA1 expressing) cells. The settings on record: hADORA1/CHO cells, FLIPR calcium, adenosine stimulation; read-out: cAMP & FLIPR IC50 (nM) hA1. It counts as cell-based. In a few lines:
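CHO cells expressing human A1 were plated at 1×10^4 cells/well the day before, then loaded with FLIPR Calcium 5 dye for 60 min at 37 °C, 5% CO2. Compounds were added at several concentrations for 400 s before stimulation with […] adenosine. The calcium signal was recorded by FLIPR.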

The target of experiment [8] is T4, hA3. The experiment in a line: cAMP & FLIPR inhibition, hA3 over-expressing cell line. It counts as cell-based. From the text: FLIPR™ and cAMP inhibition activities of exemplary compounds in different adenosine receptor over-expressing cell lines are shown in Table 4 below.

T1 sequence (P29274 whole entry): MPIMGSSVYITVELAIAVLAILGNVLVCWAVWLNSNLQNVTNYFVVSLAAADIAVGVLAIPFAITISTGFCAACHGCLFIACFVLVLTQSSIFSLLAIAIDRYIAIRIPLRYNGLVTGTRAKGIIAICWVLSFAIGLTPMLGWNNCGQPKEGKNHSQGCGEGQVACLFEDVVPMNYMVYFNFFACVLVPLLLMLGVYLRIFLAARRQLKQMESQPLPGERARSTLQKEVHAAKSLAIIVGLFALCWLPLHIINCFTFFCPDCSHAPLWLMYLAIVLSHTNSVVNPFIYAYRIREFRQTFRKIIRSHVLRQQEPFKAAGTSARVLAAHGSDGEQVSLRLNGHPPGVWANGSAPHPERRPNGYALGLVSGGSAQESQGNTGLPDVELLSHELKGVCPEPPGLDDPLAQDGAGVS
mA2a, sequence (Q60613 whole entry): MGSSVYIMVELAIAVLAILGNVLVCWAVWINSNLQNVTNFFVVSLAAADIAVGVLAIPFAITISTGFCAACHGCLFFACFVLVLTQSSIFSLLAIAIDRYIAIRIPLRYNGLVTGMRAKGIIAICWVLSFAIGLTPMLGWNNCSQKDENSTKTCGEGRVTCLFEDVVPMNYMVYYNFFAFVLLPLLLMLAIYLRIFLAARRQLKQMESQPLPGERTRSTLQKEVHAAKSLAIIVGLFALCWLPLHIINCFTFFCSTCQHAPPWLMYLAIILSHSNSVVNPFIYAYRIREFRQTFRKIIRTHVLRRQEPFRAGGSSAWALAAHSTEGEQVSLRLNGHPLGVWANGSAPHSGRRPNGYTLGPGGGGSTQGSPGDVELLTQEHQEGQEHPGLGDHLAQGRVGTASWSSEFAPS
T3 sequence (P29275 whole entry): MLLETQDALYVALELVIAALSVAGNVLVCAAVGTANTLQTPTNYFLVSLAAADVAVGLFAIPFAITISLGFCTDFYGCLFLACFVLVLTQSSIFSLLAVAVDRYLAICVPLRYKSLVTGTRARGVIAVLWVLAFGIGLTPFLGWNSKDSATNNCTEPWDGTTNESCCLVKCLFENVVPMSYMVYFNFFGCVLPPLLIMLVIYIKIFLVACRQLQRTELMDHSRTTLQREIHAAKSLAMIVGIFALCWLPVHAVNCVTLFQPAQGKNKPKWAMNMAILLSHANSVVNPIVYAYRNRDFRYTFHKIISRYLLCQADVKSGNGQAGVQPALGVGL
T4 sequence (P0DMS8 whole entry): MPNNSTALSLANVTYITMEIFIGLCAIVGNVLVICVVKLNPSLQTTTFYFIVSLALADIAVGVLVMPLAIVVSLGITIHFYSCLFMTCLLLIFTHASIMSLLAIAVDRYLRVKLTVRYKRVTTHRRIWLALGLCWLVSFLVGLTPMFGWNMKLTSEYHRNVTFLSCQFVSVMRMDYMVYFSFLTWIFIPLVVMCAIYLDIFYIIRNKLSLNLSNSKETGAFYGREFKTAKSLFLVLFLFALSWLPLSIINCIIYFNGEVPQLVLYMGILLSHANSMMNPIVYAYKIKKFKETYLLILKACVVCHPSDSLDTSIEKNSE
T2 sequence (P30542 whole entry): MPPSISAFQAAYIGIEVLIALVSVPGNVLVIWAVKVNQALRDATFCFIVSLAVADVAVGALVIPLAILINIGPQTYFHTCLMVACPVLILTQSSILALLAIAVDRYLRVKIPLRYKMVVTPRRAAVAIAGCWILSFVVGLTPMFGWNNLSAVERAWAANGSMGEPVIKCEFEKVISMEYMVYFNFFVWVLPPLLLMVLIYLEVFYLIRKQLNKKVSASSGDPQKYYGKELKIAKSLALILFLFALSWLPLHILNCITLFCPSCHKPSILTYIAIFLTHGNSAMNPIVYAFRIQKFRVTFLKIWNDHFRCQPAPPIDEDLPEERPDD

Regarding `Cn1cc(-c2c(-c3ccc(F)cc3)nc(N)n3nc(Cc4ncccc4F)nc23)ccc1=O` [Example 1, 5-(5-amino-7-(4-fluorophenyl)-2-((3-fluoropyridin-2-yl)methyl)-[1,2,4]triazolo[1,5-c]pyrimidin-8-yl)-1-methylpyridin-2(1H)-one], the IC50 at hA2a [1] was 2.3 nM; on hA1 [2] it was 1.1 nM; at hA2b [3], 2.3 nM; on hA3 [4] it was 2870 nM; at hA2a [5], 4.7 nM; on hA2b [6], 117 nM. In addition, the 50% inhibitory concentration (IC50) was 10 nM at mA2a, 8.5 nM at hA1 [7] and greater than 10000 nM on hA3 [8].
`Cn1cc(-c2c(-c3ccc(F)cc3)nc(N)n3nc(Cc4c(F)cccc4F)nc23)ccc1=O` [Example 9, 5-(5-amino-2-(2,6-difluorobenzyl)-7-(4-fluorophenyl)-[1,2,4]triazolo[1,5-c]pyrimidin-8-yl)-l-methylpyridin-2(1H)-one]: the IC50 on hA2a [1] is 2.1 nM; on hA1 [2], 0.2 nM; at hA2a [5] it was 0.6 nM; at hA2b [6], 56 nM; at mA2a it was 0.8 nM; at hA1 [7], 20 nM. The compound also returned an IC50 against hA3 [8] greater than 10000 nM.
Take `CN(C)c1cc(-c2c(-c3ccc(F)cc3)nc(N)n3nc(Cc4c(F)cccc4F)nc23)ccn1` [Example 10, 2-(2,6-difluorobenzyl)-8-(2-(dimethylamino)pyridin-4-yl)-7-(4-fluorophenyl)-[l,2,4]triazolo [l,5-c]pyrmidin-5-amine]: the IC50 at hA2a [1] amounted to 0.9 nM; at hA1 [2], 2.3 nM; on hA2b [3], 0.1 nM; at hA3 [4], 4770 nM; at hA2a [5] it was 0.2 nM; at hA2b [6] it was 4.4 nM. Besides, the IC50 on mA2a is 0.4 nM; on hA1 [7] it was 42 nM; against hA3 [8] it was greater than 10000 nM.
With `Cc1cc(-c2c(-c3ccc(F)cc3)nc(N)n3nc(Cc4c(F)cccc4F)nc23)c(C)cn1` [Example 13, 2-[(2,6-difluorophenyl)methyl]-8-(2,5-dimethylpyridin-4-yl)-7-(4-fluorophenyl)-[1,2,4]triazolo[1,5-c]pyrimidin-5-amine], the IC50 on hA2a [5] is 11 nM; on hA2b [6], 81 nM; at mA2a, 56 nM; on hA1 [7], 153 nM; against hA3 [8], greater than 10000 nM.
For `Cc1cc(-c2c(-c3ccc(F)cc3)nc(N)n3nc(Cc4ncccc4F)nc23)cc(C)n1` [Example 14], in that order: 6.9 nM, 2240 nM, 18 nM, 97 nM and greater than 10000 nM.
The corresponding values for `Cc1cc(-c2c(-c3ccc(F)cc3)nc(N)n3nc(Cc4ncccc4F)nc23)cc(Cl)n1` [Example 18, 8-(2-chloro-6-methylpyridin-4-yl)-7-(4-fluorophenyl)-2-((3-fluoropyridin-2-yl)methyl)-[l,2,4]triazolo[1,5-c]pyrimidin-5-amine] are 1.2 nM, 511 nM, 9.6 nM, 49 nM and greater than 10000 nM.
For `Cc1cc(-c2c(-c3ccc(F)cc3)nc(N)n3nc(Cc4cccc(C#N)n4)nc23)ccn1` [Example 19, 6-((5-amino-7-(4-fluorophenyl)-8-(2-methylpyridin-4-yl)-[1,2,4]triazolo[1,5-f]pyrimidin-2-yl)methyl)picolinonitrile], in that order: 102 nM, 303 nM, 88 nM, 23 nM and greater than 10000 nM.
On to `Cn1cc(-c2c(-c3ccc(F)cc3)nc(N)n3nc(Cc4ncccc4OC(F)F)nc23)ccc1=O` [Example 20, 5-(5-amino-2-[[3-(difluoromethoxy)pyridin-2-yl]methyl]-7-(4-fluorophenyl)-[1,2,4]triazolo[1,5-c]pyrimidin-8-yl)-1-methyl-1,2-dihydropyridin-2-one], for which the IC50 on hA2a [1] came out at 2.8 nM; at hA1 [2], 4 nM; at hA2b [3], 8.7 nM; on hA3 [4], 1070 nM; on hA2a [5] it was 3.5 nM; at hA2b [6] it was 84 nM. Further, the IC50 is 4.9 nM at mA2a, 34 nM on hA1 [7] and greater than 10000 nM against hA3 [8].
Turning to `Cn1cc(-c2c(-c3ncco3)nc(N)n3nc(Cc4ncccc4F)nc23)ccc1=O` [Example 21, 5-(5-amino-2-((3-fluoropyridin-2-yl)methyl)-7-(oxazol-2-yl)-[1,2,4]triazolo[1,5-c]pyrimidin-8-yl)-1-methylpyridin-2(1H)-one], the IC50 at hA2a [1] is 20 nM; at hA1 [2], 43 nM; on hA2a [5] it was 36 nM; at hA2b [6] it was 270 nM; at mA2a it was 41 nM; at hA1 [7] it was 113 nM. For the same compound, the IC50 on hA3 [8] was greater than 10000 nM.
With `CCn1cc(-c2c(-c3ccc(F)cc3)nc(N)n3nc(Cc4ncccc4F)nc23)ccc1=O` [Example 34, 5-(5-amino-7-(4-fluorophenyl)-2-((3-fluoropyridin-2-yl)methyl)-[1,2,4]triazolo[1,5-c]pyrimidin-8-yl)-1-ethylpyridin-2(1H)-one], the IC50 was determined as 2.8 nM at hA2a [1]; 0.8 nM at hA1 [2]; 0.4 nM at hA2b [3]; 10000 nM at hA3 [4]; 2.1 nM at hA2a [5]; 58 nM at hA2b [6]. Also, the 50% inhibitory concentration (IC50) on mA2a was determined as 3.4 nM; at hA1 [7] it was 12 nM.
With `CC(C)n1cc(-c2c(-c3ccc(F)cc3)nc(N)n3nc(Cc4ncccc4F)nc23)ccc1=O` [Example 55, 5-(5-amino-7-(4-fluorophenyl)-2-((3-fluoropyridin-2-yl)methyl)-[1,2,4]triazolo[1,5-c]pyrimidin-8-yl)-1-isopropylpyridin-2(1H)-one], the concentration for half-maximal inhibition (IC50) at hA2a [1] turned out to be 4 nM; on hA1 [2] it was 0.1 nM; at hA2b [3] it was 2.8 nM; on hA3 [4] it was 7290 nM; on hA2a [5], 0.7 nM; on hA2b [6] it was 101 nM. Moreover, the IC50 was 0.8 nM at mA2a and 13 nM at hA1 [7].

The values are drawn from US10858365B2, “Triazolo-pyrimidine compounds and uses thereof” (Dizal (Jiangsu) Pharmaceutical Co., Ltd., priority 2018, dated 2020).
